Source: patent publication US7507717B2 (Xenome Ltd., priority 2002, dated 2009)
Residues, ends and D or L forms follow the SMILES beside them.

Tests used:
[1] = target: T1, human noradrenaline transporter (hNET) (Homo sapiens, UniProt P23975); assay: biochemical; type: binding; conditions: for IC50: Av IC50 Displacement of 3H-nisoxetine from hNET
T1 construct: expressed in transfected cells; host or cells: COS-7 cells (ATCC), transient transfection with metafectene

[2] = target: T1, human noradrenaline transporter (hNET); assay: cell-based

T1 sequence (P23975 whole entry): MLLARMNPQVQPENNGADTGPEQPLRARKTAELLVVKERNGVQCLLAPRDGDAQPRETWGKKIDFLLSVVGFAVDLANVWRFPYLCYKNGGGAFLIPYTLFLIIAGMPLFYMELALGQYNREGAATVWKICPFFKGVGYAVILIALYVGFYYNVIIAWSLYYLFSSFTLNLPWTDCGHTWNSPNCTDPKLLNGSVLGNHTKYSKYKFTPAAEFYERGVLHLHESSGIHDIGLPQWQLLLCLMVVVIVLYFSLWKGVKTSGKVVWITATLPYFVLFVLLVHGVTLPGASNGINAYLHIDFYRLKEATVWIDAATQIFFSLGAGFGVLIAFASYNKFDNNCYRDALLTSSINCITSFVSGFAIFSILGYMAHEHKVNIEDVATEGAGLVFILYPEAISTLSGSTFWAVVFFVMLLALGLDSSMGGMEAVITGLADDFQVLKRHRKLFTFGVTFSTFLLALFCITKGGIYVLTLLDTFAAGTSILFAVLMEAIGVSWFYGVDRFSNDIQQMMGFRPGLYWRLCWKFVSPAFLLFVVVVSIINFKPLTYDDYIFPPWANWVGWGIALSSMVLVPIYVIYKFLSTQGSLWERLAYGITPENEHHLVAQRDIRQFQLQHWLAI

## CC(C)C[C@@H]1NC(=O)[C@H](CCCCN)NC(=O)[C@H](Cc2ccc(O)cc2)NC(=O)CNC(=O)[C@@H]2CSSC[C@H](NC1=O)C(=O)N[C@@H](Cc1c[nH]cn1)C(=O)N1CCC[C@H]1C(=O)N[C@H](C(N)=O)CSSC[C@H](NC(=O)[C@@H](NC(=O)CNC(=O)[C@H](CC(N)=O)NC(=O)[C@@H](N)Cc1c[nH]c3ccccc13)C(C)C)C(=O)N2 [compound 82]
[1]
  IC50: 0.295 µM
[2]
  IC50: 3.16 µM

## CC(C)C[C@H](NC(=O)[C@H](CC(=O)O)NC(=O)[C@H](CCCCN)NC(=O)[C@@H](N)Cc1c[nH]c2ccccc12)C(=O)N[C@H]1CSSC[C@@H](C(N)=O)NC(=O)[C@@H]2CCCN2C(=O)[C@H](Cc2c[nH]cn2)NC(=O)[C@@H]2CSSC[C@H](NC1=O)C(=O)NCC(=O)N[C@@H](Cc1ccc(O)cc1)C(=O)N[C@@H](CCCCN)C(=O)N[C@@H](CC(C)C)C(=O)N2 [compound 85] (HELM PEPTIDE1{W.K.D.L.C.C.G.Y.K.L.C.H.P.C.[am]}$PEPTIDE1,PEPTIDE1,5:R3-14:R3|PEPTIDE1,PEPTIDE1,6:R3-11:R3$$$V2.0)
[1]
  IC50: 0.309 µM
[2]
  IC50: 0.0891 µM

## CC(C)C[C@@H]1NC(=O)[C@H](CCCCN)NC(=O)[C@H](Cc2ccc(O)cc2)NC(=O)CNC(=O)[C@@H]2CSSC[C@H](NC1=O)C(=O)N[C@@H](CCCNC(=N)N)C(=O)N1CCC[C@H]1C(=O)N[C@H](C(N)=O)CSSC[C@H](NC(=O)[C@@H](NC(=O)CNC(=O)[C@H](CC(N)=O)NC(=O)[C@@H](N)Cc1ccc(O)cc1)C(C)C)C(=O)N2 [compound 89]
[1]
  IC50: 0.339 µM
[2]
  IC50: 0.112 µM

## CC(C)C[C@@H]1NC(=O)[C@H](CCCCN)NC(=O)[C@H](Cc2ccc(O)cc2)NC(=O)CNC(=O)[C@@H]2CSSC[C@H](NC1=O)C(=O)N[C@@H](Cc1c[nH]c3ccccc13)C(=O)N1CCC[C@H]1C(=O)N[C@H](C(N)=O)CSSC[C@H](NC(=O)[C@@H](NC(=O)[C@H](CC(=O)O)NC(=O)[C@H](CCCCN)NC(=O)[C@@H](N)Cc1c[nH]c3ccccc13)C(C)C)C(=O)N2 [compound 92] (HELM PEPTIDE1{W.K.D.V.C.C.G.Y.K.L.C.W.P.C.[am]}$PEPTIDE1,PEPTIDE1,5:R3-14:R3|PEPTIDE1,PEPTIDE1,6:R3-11:R3$$$V2.0)
[1]
  IC50: 0.407 µM
[2]
  IC50: 0.0363 µM

## CC(C)C[C@@H]1NC(=O)[C@H](CCCCN)NC(=O)[C@H](Cc2ccc(O)cc2)NC(=O)CNC(=O)[C@@H]2CSSC[C@H](NC1=O)C(=O)N[C@@H](Cc1c[nH]cn1)C(=O)N1CCC[C@H]1C(=O)N[C@H](C(N)=O)CSSC[C@H](NC(=O)[C@@H](NC(=O)CNC(=O)[C@@H](N)CC(N)=O)C(C)C)C(=O)N2 [compound 146]
[1]
  IC50: 3.09 µM
[2]
  IC50: 0.741 µM

## CC(C)C[C@@H]1NC(=O)[C@H](CCCCN)NC(=O)[C@H](Cc2ccc(O)cc2)NC(=O)CNC(=O)[C@@H]2CSSC[C@H](NC1=O)C(=O)N[C@H](C(N)=O)CSSC[C@H](NC(=O)[C@@H](N)C(C)C)C(=O)N2 [compound 148] (HELM PEPTIDE1{V.C.C.G.Y.K.L.C.C.[am]}$PEPTIDE1,PEPTIDE1,2:R3-9:R3|PEPTIDE1,PEPTIDE1,3:R3-8:R3$$$V2.0)
[1]
  IC50: 3.16 µM
[2]
  IC50: 0.347 µM

## CC(C)C[C@@H]1NC(=O)[C@H](Cc2c[nH]cn2)NC(=O)[C@H](Cc2ccc(O)cc2)NC(=O)CNC(=O)[C@@H]2CSSC[C@H](NC1=O)C(=O)N[C@@H](Cc1c[nH]cn1)C(=O)N1CCC[C@H]1C(=O)N[C@H](C(N)=O)CSSC[C@H](NC(=O)[C@@H](NC(=O)CNC(=O)[C@@H](N)CC(N)=O)C(C)C)C(=O)N2 [compound 181] (HELM PEPTIDE1{N.G.V.C.C.G.Y.H.L.C.H.P.C.[am]}$PEPTIDE1,PEPTIDE1,4:R3-13:R3|PEPTIDE1,PEPTIDE1,5:R3-10:R3$$$V2.0)
[1]
  IC50: 47.9 µM

## CC(C)C[C@@H]1NC(=O)[C@H](CCCCN)NC(=O)[C@H](Cc2ccc(O)cc2)NC(=O)[C@@H](CCC(=O)O)NC(=O)[C@@H]2CSSC[C@H](NC1=O)C(=O)N[C@@H](Cc1c[nH]cn1)C(=O)N1CCC[C@H]1C(=O)N[C@H](C(N)=O)CSSC[C@H](NC(=O)[C@@H](NC(=O)CNC(=O)[C@@H](N)CC(N)=O)C(C)C)C(=O)N2 [compound 183]
[1]
  IC50: 61.7 µM

## CC(C)C[C@@H]1NC(=O)[C@H](CCCCN)NC(=O)[C@H](CC(N)=O)NC(=O)CNC(=O)[C@@H]2CSSC[C@H](NC1=O)C(=O)N[C@@H](Cc1c[nH]cn1)C(=O)N1CCC[C@H]1C(=O)N[C@H](C(N)=O)CSSC[C@H](NC(=O)[C@@H](NC(=O)CNC(=O)[C@H](CC(N)=O)NC(=O)[C@@H](N)Cc1ccc(O)cc1)C(C)C)C(=O)N2 [compound 184] (HELM PEPTIDE1{Y.N.G.V.C.C.G.N.K.L.C.H.P.C.[am]}$PEPTIDE1,PEPTIDE1,5:R3-14:R3|PEPTIDE1,PEPTIDE1,6:R3-11:R3$$$V2.0)
[1]
  IC50: 79.4 µM

## CC(C)C[C@@H]1NC(=O)[C@H](CCC(N)=O)NC(=O)[C@H](Cc2ccc(O)cc2)NC(=O)CNC(=O)[C@@H]2CSSC[C@H](NC1=O)C(=O)N[C@@H](Cc1c[nH]cn1)C(=O)N1CCC[C@H]1C(=O)N[C@H](C(N)=O)CSSC[C@H](NC(=O)[C@@H](NC(=O)CNC(=O)[C@@H](N)CC(N)=O)C(C)C)C(=O)N2 [compound 194] (HELM PEPTIDE1{N.G.V.C.C.G.Y.Q.L.C.H.P.C.[am]}$PEPTIDE1,PEPTIDE1,4:R3-13:R3|PEPTIDE1,PEPTIDE1,5:R3-10:R3$$$V2.0)
[1]
  IC50: 123 µM

## CC(C)C[C@@H]1NC(=O)[C@H](CCCCN)NC(=O)[C@H](CCC(=O)O)NC(=O)CNC(=O)[C@@H]2CSSC[C@H](NC1=O)C(=O)N[C@@H](Cc1c[nH]cn1)C(=O)N1CCC[C@H]1C(=O)N[C@H](C(N)=O)CSSC[C@H](NC(=O)[C@@H](NC(=O)CNC(=O)[C@H](CC(N)=O)NC(=O)[C@@H](N)Cc1ccc(O)cc1)C(C)C)C(=O)N2 [compound 195] (HELM PEPTIDE1{Y.N.G.V.C.C.G.E.K.L.C.H.P.C.[am]}$PEPTIDE1,PEPTIDE1,5:R3-14:R3|PEPTIDE1,PEPTIDE1,6:R3-11:R3$$$V2.0)
[1]
  IC50: 170 µM

## CC(C)[C@H](NC(=O)CNC(=O)[C@@H](N)CC(N)=O)C(=O)N[C@H]1CSSC[C@@H](C(N)=O)NC(=O)[C@@H]2CCCN2C(=O)[C@H](Cc2c[nH]cn2)NC(=O)[C@@H]2CSSC[C@H](NC1=O)C(=O)NCC(=O)N[C@@H](Cc1ccc(O)cc1)C(=O)N[C@@H](CCCCN)C(=O)N[C@@H](CCCCN)C(=O)N2 [compound 196] (HELM PEPTIDE1{N.G.V.C.C.G.Y.K.K.C.H.P.C.[am]}$PEPTIDE1,PEPTIDE1,4:R3-13:R3|PEPTIDE1,PEPTIDE1,5:R3-10:R3$$$V2.0)
[1]
  IC50: 182 µM

## CC(C)C[C@@H]1NC(=O)[C@H](CCCCN)NC(=O)[C@H](CCCCN)NC(=O)CNC(=O)[C@@H]2CSSC[C@H](NC1=O)C(=O)N[C@@H](Cc1c[nH]cn1)C(=O)N1CCC[C@H]1C(=O)N[C@H](C(N)=O)CSSC[C@H](NC(=O)[C@@H](NC(=O)CNC(=O)[C@H](CC(N)=O)NC(=O)[C@@H](N)Cc1ccc(O)cc1)C(C)C)C(=O)N2 [compound 201] (HELM PEPTIDE1{Y.N.G.V.C.C.G.K.K.L.C.H.P.C.[am]}$PEPTIDE1,PEPTIDE1,5:R3-14:R3|PEPTIDE1,PEPTIDE1,6:R3-11:R3$$$V2.0)
[1]
  IC50: 437 µM

## YNGVCCGYILCHPC [compound 208]
[1]
  Av IC50 Displacement of 3H-nisoxetine from hNET: −2.00

## YNGVCCGYKDCHPC [compound 209]
[1]
  Av IC50 Displacement of 3H-nisoxetine from hNET: −2.00

## YNGVCCGYKLCEPC [compound 210]
[1]
  Av IC50 Displacement of 3H-nisoxetine from hNET: −2.00

## YNGVCCGYKLCRPC [compound 207]
[1]
  Av IC50 Displacement of 3H-nisoxetine from hNET: −2.00

## YNGVCCGYWLCHPC [compound 211]
[1]
  Av IC50 Displacement of 3H-nisoxetine from hNET: −2.00

## YNGVCCGYYLCHPC [compound 212]
[1]
  Av IC50 Displacement of 3H-nisoxetine from hNET: −2.00
